Experimental data as given in US20230109010A1, “PESTICIDE COMPOSITIONS WITH SUPRAMOLECULAR STRUCTURES FOR AGRICULTURAL USE” (BPS JUST ENERGY TECHNOLOGY, LLC, priority 2020, published 2023).

Columns and labels:
Rhizoctonia solani = experiment: In vitro fungal bioassay on amended PDA, fungal ring diameter; type: cell-based; details: fungicide at EC50 concentration, 24° C., 96 hours
Botrytis cinerea = experiment: as above; type: cell-based; details: fungicide at EC50 concentration, 24° C., 96 hours
Sclerotinia sclerotiorum = experiment: as above; type: cell-based; details: fungicide at EC50 concentration, 24° C., 96 hours
Macrophomina phaseoli = experiment: as above; type: cell-based; details: fungicide at EC50 concentration, 24° C., 96 hours
Pythium irregulare = experiment: as above; type: cell-based; details: fungicide at EC50 concentration, 24° C., 96 hours
Fusarium graminearum = type: cell-based; details: fungicide at EC50 concentration, PDA, 24° C., 96 hours
large crabgrass = experiment: Field trial in corn at V3, broadcast treatment on 2-4 inch weeds, % weed control; type: in vivo, Digitaria sanguinalis
Description: (§1) The herbicides tested were glufosinate, glyphosate, and mesotrione. Each herbicide was combined at the specified rate with either deionized water or SymMAX™ supramolecular host water mixture commercially available from Shotwell Hydrogenics at 15 gallons per acre (GPA). Specified rates for glufosinate were 22 ounces per acre, 11 ounces per acre, and 5.5 ounces per acre. Specified rates for glyphosate were 22 ounces per acre, 11 ounces per acre, and 5.5 ounces per acre. Specified rates for mesotrione were 3 ounces per acre, 2 ounces per acre, and 1 ounce per acre.
(§2) This example was conducted as a 4 replicate, RCBD (randomized control block design) in Quitman, GA. An untreated control was used as a standard that provided no weed control and no phytotoxicity. All treatments were compared to the untreated control. Counted dead weeds and living weeds were used to determine % weed control. The untreated control was also used to determine % crop phytotoxicity for the crop. Typical indications of phytotoxicity include chlorosis, stunting, epinasty, and/or leaf burn.
(§3) The trial ran for 14 days with weekly data assessments taken on % crop phytotoxicity and % weed control of four key species: palmer amaranth (Amaranthus palmeri), ivyleaf morning glory (Ipomoea hederacea), fall panicum (Panicum dichotomiflorum) and large crabgrass (Digitaria sanguinalis The test field was over seeded with weed seed obtained from the University of Georgia prior to corn planting. Treatments were applied as a broadcast treatment when corn had reached physiological growth stage V3 and weeds were in the 2-4″ size range. Treatments were applied at various rates ranging from about 1 ounce per acre to about 22 ounces per acre. Tables 9-10 show the % weed control when the weeds are treated with glufosinate. Tables 11-12 show the % weed control when the weeds are treated with glyphosphate. Tables 13-14 show the % weed control when the weeds are treated with mesotrione.

ivyleaf morning glory = experiment: as above; type: in vivo, Ipomoea hederacea
Description: as §1, §2, §3

fall panicum = experiment: as above; type: in vivo, Panicum dichotomiflorum
Description: as §1, §2, §3

palmer amaranth = experiment: as above; type: in vivo, Amaranthus palmeri
Description: as §1, §2, §3

Fall armyworms = experiment: Insecticide leaf-dip bioassay on spinach squares, percent killed; type: in vivo, Spodoptera frugiperda
Procedure: In this example, a ten replicated in vitro bioassay was conducted to understand the insecticide compatibilities of insecticide compositions with supramolecular host or guest chemistries. This example utilized a common insecticide, chlorantraniliprole at various application rates to understand the impact of supramolecular chemistry. Chlorantraniliprole is an insecticide active ingredient found in Coragen® insecticide, Ferterra® insecticide, and Acelepryn G® insecticide among others. Chlorantraniliprole, also known as Rynaxypyr, is an insecticide belonging to the chemical group, diamides, with a group 28 mode of action. Chlorantraniliprole opens muscular calcium channels (particularly the ryanodine receptor), rapidly causing paralysis and ultimately death of sensitive species, those being of the order of Lepidoptera and some other Coleoptera, Diptera, and Isoptera species.
A 2x factorial was used for ppm dosages to test with those being 0.005, 0.01, 0.02, 0.04, and 0.08 ppm of chlorantraniliprole. The chlorantraniliprole was sourced from Millipore Sigma, CAS Number: 500008-45-7, with the reference material being the material used for this example. The treatments were 0.005, 0.01, 0.02, 0.04, and 0.08 ppm of chlorantraniliprole as control. The supramolcular compositions were screened at the same rates of chlorantraniliprole with the addition of 23% SymMAX™ supramolecular host chemistry to the active (i.e. 0.08 ppm of active would have 0.0184 ppm 23% SymMAX™ supramolecular host chemistry). SymMAX™ supramolecular host chemistry was sourced from Shotwell Hydrogenics. The insects used for this experiment were Fall armyworms, Spodoptera frugiperda, sourced from Benzon Research of Pennsylvania. Eggs were reared to first instar at 23° C. with a noctuid diet also prepared by Benzon research.
Treatment solutions were prepared by making a stock solution of chlorantraniliprole by dissolving 0.0056 grams of chlorantraniliprole into 49.98 grams of acetone to make a 112 ppm stock solution. The stock solution was diluted to 11 ppm to make the appropriate treatment rates and to make the supramolecular compositions. The 11 ppm stock solution of the control and composition was diluted to 0.005, 0.01, 0.02, 0.04, and 0.08 ppm by diluting to a 100 gram solution of water for the leaf dipping.
Treatments were applied to 1-inch squares of spinach that were dipped in each treatment solution and allowed to dry at room temperature at 20° C. for 2 hours before 5 to 6 fall armyworms were added to a petri dish with filter paper and 1.7 mL of water. Each petri dish represents one repetition of the application and the number of live worms added were recorded on each petri dish and counted at 24 and 48 hours.

[1] = 7 days, mesotrione 1 ounce/acre
[2] = 7 days, mesotrione 2 ounces/acre
[3] = 7 days, mesotrione 3 ounces/acre
[4] = 14 days, mesotrione 1 ounce/acre
[5] = 14 days, mesotrione 2 ounces/acre
[6] = 14 days, mesotrione 3 ounces/acre

Question: For `FC(F)C(F)(F)OCC(Cn1cncn1)c1ccc(Cl)cc1Cl` (stereo not shown) [Tetraconazole, tetraconazole], which “FUNGAL RING DIAMETER (mm) FOR FLUXAPYROXAD” value (Rhizoctonia solani) is on record?
Answer: 54.377 mm

Question: What about the “FUNGAL RING DIAMETER (mm) FOR TETRACONAZOLE” value (Rhizoctonia solani) of the same compound?
Answer: 74.33 mm

Question: And the “FUNGAL RING DIAMETER (mm) FOR FLUXAPYROXAD” value (Botrytis cinerea)?
Answer: 49.988 mm

Question: And the “FUNGAL RING DIAMETER (mm) FOR TETRACONAZOLE” value (Botrytis cinerea)?
Answer: 65.2 mm

Question: And the “FUNGAL RING DIAMETER (mm) FOR FLUXAPYROXAD” value (Sclerotinia sclerotiorum)?
Answer: 65.41 mm

Question: What about the “FUNGAL RING DIAMETER (mm) FOR TETRACONAZOLE” value (Sclerotinia sclerotiorum) of the same compound?
Answer: 56.96 mm

Question: And the “FUNGAL RING DIAMETER (mm) FOR FLUXAPYROXAD” value (Macrophomina phaseoli)?
Answer: 66.979 mm

Question: What about the “FUNGAL RING DIAMETER (mm) FOR TETRACONAZOLE” value (Macrophomina phaseoli) of the same compound?
Answer: 61.298 mm

Question: And the “FUNGAL RING DIAMETER (mm) FOR FLUXAPYROXAD” value (Pythium irregulare)?
Answer: 89 mm

Question: And the “FUNGAL RING DIAMETER (mm) FOR TETRACONAZOLE” value (Pythium irregulare)?
Answer: 85.93 mm

Question: What about the “FUNGAL RING DIAMETER (mm) FOR FLUXAPYROXAD” value (Fusarium graminearum) of the same compound?
Answer: 40.783 mm

Question: What about the “FUNGAL RING DIAMETER (mm) FOR TETRACONAZOLE” value (Fusarium graminearum) of the same compound?
Answer: 30.766 mm

Question: Which “FUNGAL RING DIAMETER (mm) FOR AZOXYSTROBIN” value (Rhizoctonia solani) does the source give for `CO/C=C(/C(=O)OC)c1ccccc1Oc1cc(Oc2ccccc2C#N)ncn1` [Azoxystrobin, azoxystrobin] here?
Answer: 48.4 mm

Question: And the “FUNGAL RING DIAMETER (mm) FOR AZOXYSTROBIN” value (Botrytis cinerea)?
Answer: 52.5 mm

Question: And the “FUNGAL RING DIAMETER (mm) FOR AZOXYSTROBIN” value (Sclerotinia sclerotiorum)?
Answer: 43.1 mm

Question: What about the “FUNGAL RING DIAMETER (mm) FOR AZOXYSTROBIN” value (Macrophomina phaseoli) of the same compound?
Answer: 40.2 mm

Question: And the “FUNGAL RING DIAMETER (mm) FOR AZOXYSTROBIN” value (Pythium irregulare)?
Answer: 44.3 mm

Question: And the “FUNGAL RING DIAMETER (mm) FOR AZOXYSTROBIN” value (Fusarium graminearum)?
Answer: 21.1 mm

Question: `CS(=O)(=O)c1ccc(C(=O)C2C(=O)CCCC2=O)c([N+](=O)[O-])c1` [Mesotrione, mesotrione] was tested. Which “% WEED CONTROL FOR LARGE CRABGRASS” value (large crabgrass; [1]) did it give?
Answer: 62.3%

Question: What about the “% WEED CONTROL FOR LARGE CRABGRASS” value (large crabgrass; [2]) of the same compound?
Answer: 81.5%

Question: And the “% WEED CONTROL FOR LARGE CRABGRASS” value (large crabgrass; [3])?
Answer: 91.5%

Question: And the “% WEED CONTROL FOR LARGE CRABGRASS” value (large crabgrass; [4])?
Answer: 63.0%

Question: What about the “% WEED CONTROL FOR LARGE CRABGRASS” value (large crabgrass; [5]) of the same compound?
Answer: 78.8%

Question: And the “% WEED CONTROL FOR LARGE CRABGRASS” value (large crabgrass; [6])?
Answer: 88.5%

Question: And the “% WEED CONTROL FOR IVYLEAF MORNINGLORY” value (ivyleaf morning glory; [1])?
Answer: 64.5%

Question: What about the “% WEED CONTROL FOR IVYLEAF MORNINGLORY” value (ivyleaf morning glory; [2]) of the same compound?
Answer: 91.6%

Question: And the “% WEED CONTROL FOR IVYLEAF MORNINGLORY” value (ivyleaf morning glory; [3])?
Answer: 94.2%

Question: What about the “% WEED CONTROL FOR IVYLEAF MORNINGLORY” value (ivyleaf morning glory; [4]) of the same compound?
Answer: 88.8%

Question: And the “% WEED CONTROL FOR IVYLEAF MORNINGLORY” value (ivyleaf morning glory; [5])?
Answer: 96.5%

Question: What about the “% WEED CONTROL FOR IVYLEAF MORNINGLORY” value (ivyleaf morning glory; [6]) of the same compound?
Answer: 99.1%

Question: And the “% WEED CONTROL FOR FALL PANICUM” value (fall panicum; [1])?
Answer: 62.8%

Question: What about the “% WEED CONTROL FOR FALL PANICUM” value (fall panicum; [2]) of the same compound?
Answer: 72.3%

Question: What about the “% WEED CONTROL FOR FALL PANICUM” value (fall panicum; [3]) of the same compound?
Answer: 87.3%

Question: And the “% WEED CONTROL FOR FALL PANICUM” value (fall panicum; [4])?
Answer: 54.8%

Question: What about the “% WEED CONTROL FOR FALL PANICUM” value (fall panicum; [5]) of the same compound?
Answer: 62.3%

Question: What about the “% WEED CONTROL FOR FALL PANICUM” value (fall panicum; [6]) of the same compound?
Answer: 86.0%

Question: And the “% WEED CONTROL FOR PALMER AMARANTH” value (palmer amaranth; [1])?
Answer: 87.4%

Question: What about the “% WEED CONTROL FOR PALMER AMARANTH” value (palmer amaranth; [2]) of the same compound?
Answer: 97.7%

Question: And the “% WEED CONTROL FOR PALMER AMARANTH” value (palmer amaranth; [3])?
Answer: 99.0%

Question: And the “% WEED CONTROL FOR PALMER AMARANTH” value (palmer amaranth; [4])?
Answer: 95.1%

Question: And the “% WEED CONTROL FOR PALMER AMARANTH” value (palmer amaranth; [5])?
Answer: 97.0%

Question: And the “% WEED CONTROL FOR PALMER AMARANTH” value (palmer amaranth; [6])?
Answer: 99.3%

Question: `CNC(=O)c1cc(Cl)cc(C)c1NC(=O)c1cc(Br)nn1-c1ncccc1Cl` [Chlorantraniliprole Control, chlorantraniliprole] was tested. Which “PERCENT KILLED AT 24 HOURS” value (Fall armyworms; 0.005 ppm chlorantraniliprole) did it give?
Answer: 26.0%

Question: And the “PERCENT KILLED AT 48 HOURS” value (Fall armyworms; 0.005 ppm chlorantraniliprole)?
Answer: 36.0%

Question: What about the “PERCENT KILLED AT 24 HOURS” value (Fall armyworms; 0.01 ppm chlorantraniliprole) of the same compound?
Answer: 15.3%

Question: What about the “PERCENT KILLED AT 48 HOURS” value (Fall armyworms; 0.01 ppm chlorantraniliprole) of the same compound?
Answer: 57.0%

Question: And the “PERCENT KILLED AT 24 HOURS” value (Fall armyworms; 0.02 ppm chlorantraniliprole)?
Answer: 15.3%

Question: And the “PERCENT KILLED AT 48 HOURS” value (Fall armyworms; 0.02 ppm chlorantraniliprole)?
Answer: 28.9%

Question: What about the “PERCENT KILLED AT 24 HOURS” value (Fall armyworms; 0.04 ppm chlorantraniliprole) of the same compound?
Answer: 37.7%

Question: What about the “PERCENT KILLED AT 48 HOURS” value (Fall armyworms; 0.04 ppm chlorantraniliprole) of the same compound?
Answer: 81.4%

Question: And the “PERCENT KILLED AT 24 HOURS” value (Fall armyworms; 0.08 ppm chlorantraniliprole)?
Answer: 19.6%

Question: And the “PERCENT KILLED AT 48 HOURS” value (Fall armyworms; 0.08 ppm chlorantraniliprole)?
Answer: 91.7%
